# In US8940798B2, “Compounds useful for treating and/or preventing disease-associated bone loss” (Centre National de al Recherche Scientifique (CNRS), priority 2011, dated 2015):
# Target: T1, Dock5-DHR2 (Mus musculus, UniProt B2RY04)
# T1 construct: Dock5 DHR2 domain (aminoacids E1119 to L1667) was cloned into pEGFP (Clontech) or myc tagged in pRs426Met (21); expressed in transfected cells; host or cells: HEK-293T cells
# Assay: Active (GTP-bound) Rac1 pull-down in 293T cells expressing GFP-fused Dock5-DHR2
# Format: cell-based
# Details: HEK293T cells, treated for 1 hour, 1% DMSO, western blot
# Description: FIGS. 5A-5H: Inhibition of bone resorption by an inhibitor of Rac1 activation by Dock5. (FIG. 5A) Principle of the yeast exchange assay used to identify inhibitors of Dock5 exchange activity. Wild type Rac1 is fused to LexA DNA binding domain (LexA) and its effector Kinectin (Kin) to GAL4 activation domain (GAD). Expression of Dock5-DHR2 activates Rac1, which binds to kinectin, leading to the expression of his3 and then yeast […] for histidine. Inhibitors of Dock5-DHR2 revert Rac1 activation. (FIG. 5B) Growth curves of yeasts expressing Rac1 and Kinectin with (open triangles) and without (dots) Dock5-DHR2, in medium complemented (plain lines) or not (dotted lines) with histidine. (FIG. 5C) Structure of N-(3,5-dichlorophenyl)benzensulfonamide (C21). […] (FIG. 5F) Number of OCs (OC) after a 24-hour incubation with the indicated concentrations of C21, expressed as a % of DMSO control (0 μM C21). […] To activate Rac1, OCs at day 4 of differentiation were starved overnight in the presence of 2% serum, stimulated with 100 ng/ml M-CSF or lifted and replated onto vitronectin-coated plates for 30 minutes prior to lysis, and active Rac1 levels were measured G-LISA kit according to manufacturer's instructions (Cytoskeleton).
# T1 sequence (B2RY04 1119-1667): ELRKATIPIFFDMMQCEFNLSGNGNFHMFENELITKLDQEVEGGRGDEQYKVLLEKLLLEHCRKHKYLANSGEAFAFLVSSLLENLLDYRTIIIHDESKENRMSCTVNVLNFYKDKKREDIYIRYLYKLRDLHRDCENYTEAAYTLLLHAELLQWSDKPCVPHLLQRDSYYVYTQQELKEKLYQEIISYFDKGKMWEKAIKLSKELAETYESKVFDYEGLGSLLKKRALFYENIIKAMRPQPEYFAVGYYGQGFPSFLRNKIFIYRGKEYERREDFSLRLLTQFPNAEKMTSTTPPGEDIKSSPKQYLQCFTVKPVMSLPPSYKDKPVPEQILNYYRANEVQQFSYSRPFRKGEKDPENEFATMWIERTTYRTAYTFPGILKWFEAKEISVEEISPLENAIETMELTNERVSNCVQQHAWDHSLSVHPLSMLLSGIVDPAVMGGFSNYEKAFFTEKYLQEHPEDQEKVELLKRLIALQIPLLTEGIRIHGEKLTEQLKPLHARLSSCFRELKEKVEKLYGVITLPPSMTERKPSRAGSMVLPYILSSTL
compound,measurement,value
"O=S(=O)(Nc1cc(Cl)cc(Cl)c1)c1ccccc1 [C21, N-(3,5-dichlorophenyl)benzenesulfonamide]",Activation of Rac1 by Dock5-DHR2,efficiently inhibits
